What was measured:
[1] = molecular target: T1, pseudokinase domain (JH2) of human TYK2 (Homo sapiens, UniProt P29597); assay: TYK2-JH2 Tracer Binding Assay; settings: His-tagged TYK2-JH2 0.200 nM, Tracer 2.00 nM, 30 minutes, TR-FRET; n=1
T1 construct: The pseudokinase domain (JH2) of human JAK (Janus family of cytoplasmic tyrosine kinases) family tyrosine kinase 2 (TYK2); made in house
From the text: The pseudokinase domain (JH2) of human JAK (Janus family of cytoplasmic tyrosine kinases) family tyrosine kinase 2 (TYK2) (Genbank NP_003322) with an N-terminal His6 tag is expressed in baculovirus and purified by HisPur Ni-NTA affinity and Superdex 200 size-exclusion chromatography. The compound prepared in Preparation 11, a conjugate of Alexa Fluor 647 dye (Thermo Fisher Scientific) and a suitable TYK2 JH2 binder, is referred to herein as “the Tracer”. A 3 fold, 10 point serial dilution of compound, Example 1 and Example 2, are prepared in 100% DMSO and 50 nL/well transferred to a Proxiplate-384F white plate (PerkinElmer 6008280) using acoustic liquid handling. Control wells used to determine percent inhibition contained 100% DMSO (50 nL) and either assay buffer containing the Tracer (2.00 nM final concentration) (min, low FRET) or diluted TYK2-JH2 enzyme (0.200 nM final concentration) and the Tracer (2.00 nM final concentration) (max, high FRET). […] After 30 minutes, the plate is counted on a PerkinElmer Envision with the following settings: Excitation (340 nm), Tracer Emission (665 nm) and LanthaScreen Eu-anti-His Antibody Emission (615 nm). The ratio of Tracer Emission (665 nm) over LanthaScreen Eu-anti-His Antibody Emission (615 nm) is determined.

[2] = tested on: IFNα signaling through pSTAT1 in TF1 cells; assay: Inhibition of IFNα Signaling Through pSTAT1 in TF1 Cells; assay type: cell-based; settings: Homo sapiens, TF-1, 1 hour pre-incubation, 10 ng/mL IFNα2 for 20 minutes, GeoMetric mean (SEM), read-out: IC50 (inhibition of p-Stat1 (Tyr701))
Experimental: TF1 cells (ATCC, CL-2003) are grown in RPMI 1640 (GIBCO) supplemented with 10% dialyzed FBS, 0.1 mg/mL Ampicillin and 2 ng/mL granulocyte macrophage colony stimulating factor. TF1 cells (100 K per well) are seeded in a 96-well poly-D-lysine coated plates in serum-free DMEM and incubated overnight at 37° C. under 5% CO2. Example 1 is serially diluted in DMSO, added to the cells, and incubated at 37° C. for 1 hour. Cells are then stimulated with 10 ng/mL IFNα2 at 37° C. for 20 minutes. After removing the medium, the cells are lysed in buffer containing Halt protease and phosphatase inhibitor cocktail (Thermo Scientific #78441) at ambient temperature for 30 minutes. The amount of p-Stat1 (Tyr701) is quantified as light emission at 615 nm using the AlphaLISA SureFire Ultra p-Stat1 (Tyr701) assay kit (Perkin Elmer #ALSU-PST1-A50K) following the vendor's recommended protocol.

[3] = tested on: IL-23 signaling (STAT3 phosphorylation) in Kit225 cells; assay: IL23 pSTAT3 AlphaLISA Assay; assay type: cell-based; settings: 1 hour pre-incubation, IL23 25 ng/mL for 30 minutes, GeoMetric mean (SEM), read-out: relative IC50 (IL23 pSTAT3 AlphaLISA)
Experimental: IL2-dependent Kit225 cells (University of Texas MD Anderson Cancer Center) expressing endogenous IL23 receptors are stably transduced with the Lenti STAT3 Reporter linked to firefly luciferase (SABiosciences CLS-6028L). These cells are used to monitor TYK2 activity by quantifying gene expression caused by STAT3 phosphorylation following induction by IL23 in the presence of IL2 using AlphaLISA technology (TGR Biosciences ALSU-TST3-A50K). The cells are grown in RPMI 1640 (Gibco 22400) supplemented with 10% FBS (Invitrogen 10082), 1×Pen/Strep (Gibco 15140-122), 200 ng/ml Puromycin (Sigma P9620), and fresh 10 ng/ml recombinant human IL2 (R&D Systems 202-IL-50).
For assay preparation, cells are dispensed into Biocoat black poly-d-lysine coated clear bottom 384-well plates (Becton Dickinson Bio-Coat 35-4640) in DMEM (Sigma D5796) at 300,000 cells/well and allowed to incubate overnight at 37° C. Compounds solubilized in DMSO are serially diluted 1:3 to produce a 10-point concentration response curve (final DMSO=0.1%). Cells are pre-incubated with Example 1 for 1 hour at 37° C., then stimulated with IL23 (25 ng/mL final) for 30 minutes. […] The AlphaLISA reaction is performed following the vendor's recommended protocol, and the […] are measured using an Envision plate reader (Perkin Elmer).

T1 sequence (P29597 589-875 limits assumed): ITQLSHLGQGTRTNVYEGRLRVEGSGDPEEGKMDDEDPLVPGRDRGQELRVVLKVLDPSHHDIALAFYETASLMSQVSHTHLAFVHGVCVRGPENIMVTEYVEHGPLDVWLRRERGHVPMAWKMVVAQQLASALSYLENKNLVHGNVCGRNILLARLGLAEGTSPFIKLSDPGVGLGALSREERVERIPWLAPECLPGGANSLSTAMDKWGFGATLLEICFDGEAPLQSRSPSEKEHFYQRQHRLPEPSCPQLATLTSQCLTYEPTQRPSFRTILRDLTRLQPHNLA

IC50 [1] [nM] | IC50 [2] [nM] | IC50 [3] [nM] | Compound
< 0.254 | 38 | 29 | CCOc1cccc(Nc2cc(NC)n3ncc(C(=O)N[C@@H]4CCN(C)C4=O)c3n2)n1 [Example 1, 5-[(6-Ethoxy-2-pyridyl)amino]-7-(methylamino)-N-[(3R)-1-methyl-2-oxo-pyrrolidin-3-yl]pyrazolo[1,5-a]pyrimidine-3-carboxamide]
< 0.254 | 84 | 60 | CNc1cc(Nc2cc(C)cc(C)n2)nc2c(C(=O)N[C@@H]3CCN(C)C3=O)cnn12 [Example 2, 5-[(4,6-Dimethyl-2-pyridyl)amino]-7-(methylamino)-N-[(3R)-1-methyl-2-oxo-pyrrolidin-3-yl]pyrazolo[1,5-a]pyrimidine-3-carboxamide]

From patent US12516063B2, “Substituted 7-(methylamino)pyrazolo[1,5-a]pyrimidine-3-carboxamide derivatives for treating autoimmune diseases” (Eli Lilly and Company, priority 2020, dated 2026)
